Assay results published in the supplement of paper PMC10733146.

How the values were obtained:
Test in all cases: viability relative to DMSO control (fraction); higher = less drug effect (more viable cells)
Settings in all cases: 48 h
[1] = compound: CC1(C)CCC(CN2CCN(c3ccc(C(=O)NS(=O)(=O)c4ccc(NCC5CCOCC5)c([N+](=O)[O-])c4)c(Oc4cnc5[nH]ccc5c4)c3)CC2)=C(c2ccc(Cl)cc2)C1 [Venetoclax]
Procedure, shortened: (§1)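 Viability was measured as CellTiter-Glo luminescence relative to the median of 16 inner DMSO wells. Primary mononuclear tumour cells, fresh or cryopreserved, were Ficoll-isolated from blood or bone marrow or taken from processed lymph node. They were seeded at 4 × 10^4 cells per well into 384-well plates holding pre-plated compounds at five concentrations, one well each, and kept in RPMI-1640 with penicillin/streptomycin, L-glutamine and human serum at 37 °C and 5% CO2 for 48 h.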

[2] = compound: CCS(=O)(=O)N1CCC([C@@H](C)n2c(C)c(C(=O)NCc3c(OC)cc(C)[nH]c3=O)c3ccccc32)CC1 [CPI-169]
Procedure, shortened: as §1

[3] = compound: CCNC(=O)C[C@@H]1N=C(c2ccc(Cl)cc2)c2cc(OC)ccc2-n2c(C)nnc21 [I-BET-762]
Procedure, shortened: as §1

[4] = compound: c1cn2cc(-c3ccc4cn[nH]c4c3)nc(Nc3ccc(N4CCOCC4)cc3)c2n1 [Entospletinib]
Procedure, shortened: as §1

[5] = compound: O=C(Nc1ccc2[nH]nc(-c3ccncc3)c2c1)[C@@H]1CCN(CC(=O)N2CCN(c3ccc(-c4ncccn4)cc3)CC2)C1
Procedure, shortened: as §1

[6] = compound: Cn1c(CCCC(=O)O)nc2cc(N(CCCl)CCCl)ccc21 [Bendamustine]
Procedure, shortened: as §1

[7] = compound: O=C(NO)c1cccc(C(=O)NCCc2ccccc2)c1
Procedure, shortened: as §1

[8] = compound: CO[C@H]1C[C@@H]2CC[C@@H](C)[C@@](O)(O2)C(=O)C(=O)N2CCCC[C@H]2C(=O)O[C@H]([C@H](C)C[C@@H]2CC[C@@H](OCCO)[C@H](OC)C2)CC(=O)[C@H](C)/C=C(\C)[C@@H](O)[C@@H](OC)C(=O)[C@H](C)C[C@H](C)/C=C/C=C/C=C/1C [Everolimus]
Procedure, shortened: as §1

[9] = compound: O=C1CCC(N2C(=O)c3ccccc3C2=O)C(=O)N1 [Thalidomide]
Procedure, shortened: as §1

[10] = compound: C[C@H]1C[C@@H](n2c(Nc3ccc(OC(F)(F)F)cc3)nc3cc(CCC(=O)O)ccc32)CC(C)(C)C1
Procedure, shortened: as §1

[11] = compound: CC[C@H](CO)Nc1nc(NCc2ccccc2)c2ncn(C(C)C)c2n1 [Roscovitine]
Procedure, shortened: as §1

[12] = compound: COc1cc(C(=O)O)ccc1NC(=O)[C@@H]1N[C@@H](CC(C)(C)C)[C@](C#N)(c2ccc(Cl)cc2F)[C@H]1c1cccc(Cl)c1F [Idasanutlin (RS7388)]
Procedure, shortened: as §1

[13] = compound: CC[C@]1(O)C[C@@H]2CN(CCc3c([nH]c4ccccc34)[C@@](C(=O)OC)(c3cc4c(cc3OC)N(C)[C@H]3[C@@](O)(C(N)=O)[C@H](O)[C@]5(CC)C=CCN6CC[C@]43[C@@H]65)C2)C1 [Vindesine]
Procedure, shortened: as §1

## primary DLBCL patient cells (S076)
[1]; 0.00064 µM
  viability: 1.09
[1]; 0.0032 µM
  viability: 1.01
[1]; 0.016 µM
  viability: 0.622
[1]; 0.08 µM
  viability: 0.451
[1]; 0.4 µM
  viability: 0.374
[2]; 0.024 µM
  viability: 1.04
[2]; 0.12 µM
  viability: 1.04
[2]; 0.6 µM
  viability: 1.07
[2]; 3 µM
  viability: 0.993
[2]; 15 µM
  viability: 1.05
[3]; 0.008 µM
  viability: 1.08
[3]; 0.04 µM
  viability: 1.04
[3]; 0.2 µM
  viability: 0.94
[3]; 1 µM
  viability: 0.82
[3]; 5 µM
  viability: 0.738
[4]; 0.024 µM
  viability: 1.05
[4]; 0.12 µM
  viability: 0.954
[4]; 0.6 µM
  viability: 0.927
[4]; 3 µM
  viability: 0.979
[4]; 15 µM
  viability: 1.05
[5]; 0.008 µM
  viability: 0.991
[5]; 0.04 µM
  viability: 0.912
[5]; 0.2 µM
  viability: 0.796
[5]; 1 µM
  viability: 0.694
[5]; 5 µM
  viability: 0.622
[6]; 0.032 µM
  viability: 0.945
[6]; 0.16 µM
  viability: 1.1
[6]; 0.8 µM
  viability: 1.08
[6]; 4 µM
  viability: 0.965
[6]; 20 µM
  viability: 0.759
[7]; 0.024 µM
  viability: 1.15
[7]; 0.12 µM
  viability: 1.12
[7]; 0.6 µM
  viability: 1.09
[7]; 3 µM
  viability: 1.13
[7]; 15 µM
  viability: 1.17
[8]; 0.0032 µM
  viability: 0.937
[8]; 0.016 µM
  viability: 0.888
[8]; 0.08 µM
  viability: 0.891
[8]; 0.4 µM
  viability: 0.887
[8]; 2 µM
  viability: 0.855
[9]; 0.032 µM
  viability: 1.06
[9]; 0.16 µM
  viability: 0.993
[9]; 0.8 µM
  viability: 1.09
[9]; 4 µM
  viability: 1.11
[9]; 20 µM
  viability: 1.06

## primary AML patient cells (S006)
[1]; 0.00064 µM
  viability: 0.943
[1]; 0.0032 µM
  viability: 0.649
[1]; 0.016 µM
  viability: 0.314
[1]; 0.08 µM
  viability: 0.135
[1]; 0.4 µM
  viability: 0.0687
[2]; 0.024 µM
  viability: 0.992
[2]; 0.12 µM
  viability: 0.982
[2]; 0.6 µM
  viability: 1.03
[2]; 3 µM
  viability: 1.01
[2]; 15 µM
  viability: 1.06
[4]; 0.024 µM
  viability: 1.08
[4]; 0.12 µM
  viability: 0.973
[4]; 0.6 µM
  viability: 0.886
[4]; 3 µM
  viability: 0.945
[4]; 15 µM
  viability: 0.925
[5]; 0.008 µM
  viability: 0.989
[5]; 0.04 µM
  viability: 0.932
[5]; 0.2 µM
  viability: 0.856
[5]; 1 µM
  viability: 0.753
[5]; 5 µM
  viability: 0.548
[10]; 0.024 µM
  viability: 1.02
[10]; 0.12 µM
  viability: 1.14
[10]; 0.6 µM
  viability: 1.08
[10]; 3 µM
  viability: 1.04
[10]; 15 µM
  viability: 0.957
[11]; 0.032 µM
  viability: 1.08
[11]; 0.16 µM
  viability: 1.07
[11]; 0.8 µM
  viability: 1.03
[11]; 4 µM
  viability: 1.04
[11]; 20 µM
  viability: 0.576
[12]; 0.032 µM
  viability: 0.488
[12]; 0.16 µM
  viability: 0.25
[12]; 0.8 µM
  viability: 0.0758
[12]; 4 µM
  viability: 0.0429
[12]; 20 µM
  viability: 0.0408
[6]; 0.032 µM
  viability: 0.999
[6]; 0.16 µM
  viability: 1.04
[6]; 0.8 µM
  viability: 1.04
[6]; 4 µM
  viability: 0.987
[6]; 20 µM
  viability: 0.616
[7]; 0.024 µM
  viability: 1.03
[7]; 0.12 µM
  viability: 0.999
[7]; 0.6 µM
  viability: 1.04
[7]; 3 µM
  viability: 0.933
[7]; 15 µM
  viability: 0.837
[13]; 0.016 µM
  viability: 0.778
[13]; 0.08 µM
  viability: 0.395
[13]; 0.4 µM
  viability: 0.244
[13]; 2 µM
  viability: 0.207
[13]; 10 µM
  viability: 0.194
[8]; 0.0032 µM
  viability: 0.865
[8]; 0.016 µM
  viability: 0.853
[8]; 0.08 µM
  viability: 0.82
[8]; 0.4 µM
  viability: 0.758
[8]; 2 µM
  viability: 0.684
[9]; 0.032 µM
  viability: 0.974
[9]; 0.16 µM
  viability: 0.915
[9]; 0.8 µM
  viability: 0.895
[9]; 4 µM
  viability: 0.897
[9]; 20 µM
  viability: 0.843
